In ChEMBL document CHEMBL5291721, “A preclinical secondary pharmacology resource illuminates target-adverse drug reaction associations of marketed drugs” (Nat Commun, 2023):

Key:
[1] = molecular target: T1, Alpha-2A adrenergic receptor (Homo sapiens, UniProt P08913); format: functional, cell-based
T1 sequence (P08913 whole entry): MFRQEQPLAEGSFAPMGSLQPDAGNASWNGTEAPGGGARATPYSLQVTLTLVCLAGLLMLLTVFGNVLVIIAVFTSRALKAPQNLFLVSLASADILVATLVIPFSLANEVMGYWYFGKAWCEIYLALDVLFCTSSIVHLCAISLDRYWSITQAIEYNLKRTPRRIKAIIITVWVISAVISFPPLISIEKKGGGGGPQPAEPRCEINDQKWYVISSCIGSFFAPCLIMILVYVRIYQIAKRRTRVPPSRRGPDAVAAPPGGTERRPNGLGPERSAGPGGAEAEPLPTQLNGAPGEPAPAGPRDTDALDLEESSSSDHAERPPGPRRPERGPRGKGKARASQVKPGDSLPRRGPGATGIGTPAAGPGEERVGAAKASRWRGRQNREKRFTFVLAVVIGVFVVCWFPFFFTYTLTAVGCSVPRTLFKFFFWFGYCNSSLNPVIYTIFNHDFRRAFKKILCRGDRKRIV

D(1A) dopamine receptor = D(1A) dopamine receptor (Homo sapiens, UniProt P21728); format: functional, cell-based
Endothelin-1 receptor = molecular target: T2, Endothelin-1 receptor (Homo sapiens, UniProt P25101)
T2 sequence (P25101 whole entry): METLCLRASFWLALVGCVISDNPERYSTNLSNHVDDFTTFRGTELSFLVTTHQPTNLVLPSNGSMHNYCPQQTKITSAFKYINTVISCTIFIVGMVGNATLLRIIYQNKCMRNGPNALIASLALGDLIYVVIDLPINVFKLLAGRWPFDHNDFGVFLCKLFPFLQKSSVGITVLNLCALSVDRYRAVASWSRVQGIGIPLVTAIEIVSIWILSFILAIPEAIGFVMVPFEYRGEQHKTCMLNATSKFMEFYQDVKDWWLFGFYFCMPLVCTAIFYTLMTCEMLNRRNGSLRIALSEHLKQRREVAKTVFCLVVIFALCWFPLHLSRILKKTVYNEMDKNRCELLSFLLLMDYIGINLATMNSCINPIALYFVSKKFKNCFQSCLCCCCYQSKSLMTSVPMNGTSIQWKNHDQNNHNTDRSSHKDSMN

[2] = molecular target: Gamma-aminobutyric acid receptor subunit alpha-1 (Rattus norvegicus, UniProt P62813); format: functional
[3] = molecular target: T3, 5-hydroxytryptamine receptor 1A (Homo sapiens, UniProt P08908); format: functional, cell-based
T3 sequence (P08908 whole entry): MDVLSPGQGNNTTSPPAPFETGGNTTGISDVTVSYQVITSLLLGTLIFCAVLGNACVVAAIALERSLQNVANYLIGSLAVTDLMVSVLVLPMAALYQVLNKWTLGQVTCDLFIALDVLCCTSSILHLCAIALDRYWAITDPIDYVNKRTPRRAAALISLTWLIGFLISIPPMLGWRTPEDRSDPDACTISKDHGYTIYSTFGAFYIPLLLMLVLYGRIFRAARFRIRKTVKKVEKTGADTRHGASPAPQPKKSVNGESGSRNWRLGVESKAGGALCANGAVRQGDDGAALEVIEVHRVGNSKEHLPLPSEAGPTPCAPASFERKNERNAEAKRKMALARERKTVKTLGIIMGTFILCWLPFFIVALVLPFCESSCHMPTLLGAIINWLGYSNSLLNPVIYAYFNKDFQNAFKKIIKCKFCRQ

[4] = molecular target: T4, 5-hydroxytryptamine receptor 3A (Homo sapiens, UniProt P46098); format: functional
T4 sequence (P46098 whole entry): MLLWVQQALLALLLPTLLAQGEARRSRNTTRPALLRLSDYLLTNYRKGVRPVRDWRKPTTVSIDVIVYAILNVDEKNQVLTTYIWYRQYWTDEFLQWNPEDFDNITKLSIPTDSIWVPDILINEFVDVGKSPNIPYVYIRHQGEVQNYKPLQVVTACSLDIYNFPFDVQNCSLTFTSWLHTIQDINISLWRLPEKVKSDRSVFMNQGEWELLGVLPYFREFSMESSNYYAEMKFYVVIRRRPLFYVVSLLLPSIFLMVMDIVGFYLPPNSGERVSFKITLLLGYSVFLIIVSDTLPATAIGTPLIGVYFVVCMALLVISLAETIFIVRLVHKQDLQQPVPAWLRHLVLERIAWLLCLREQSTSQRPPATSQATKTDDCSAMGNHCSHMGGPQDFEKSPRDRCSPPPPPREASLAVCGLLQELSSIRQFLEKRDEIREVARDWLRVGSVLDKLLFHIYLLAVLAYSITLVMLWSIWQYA

Mu-type opioid receptor = Mu-type opioid receptor (Homo sapiens, UniProt P35372); experiment: biochemical; format: functional
[5] = molecular target: T5, Equilibrative nucleoside transporter 1 (Homo sapiens, UniProt Q99808)
T5 sequence (Q99808 whole entry): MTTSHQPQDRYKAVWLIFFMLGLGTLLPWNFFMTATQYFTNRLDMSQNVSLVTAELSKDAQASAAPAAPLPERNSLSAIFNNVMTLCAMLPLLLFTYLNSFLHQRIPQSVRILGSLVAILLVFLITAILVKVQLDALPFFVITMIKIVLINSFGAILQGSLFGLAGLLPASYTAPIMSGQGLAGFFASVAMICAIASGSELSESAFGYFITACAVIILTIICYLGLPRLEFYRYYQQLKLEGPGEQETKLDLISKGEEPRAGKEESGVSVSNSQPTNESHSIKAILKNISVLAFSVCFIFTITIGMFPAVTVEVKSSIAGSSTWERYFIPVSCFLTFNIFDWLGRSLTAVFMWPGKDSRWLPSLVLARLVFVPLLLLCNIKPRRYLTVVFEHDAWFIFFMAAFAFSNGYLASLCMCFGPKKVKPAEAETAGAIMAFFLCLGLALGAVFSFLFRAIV

D(3) dopamine receptor = D(3) dopamine receptor (Homo sapiens, UniProt P35462)
Histamine H3 receptor = Histamine H3 receptor (Homo sapiens, UniProt Q9Y5N1)
[6] = molecular target: Voltage-gated inwardly rectifying potassium channel KCNH2 (Homo sapiens, UniProt Q12809); format: functional
Vasopressin V1a receptor = Vasopressin V1a receptor (Homo sapiens, UniProt P37288)
Further: assay procedure not described here.

Chain of D(3) dopamine receptor (P35462 whole entry): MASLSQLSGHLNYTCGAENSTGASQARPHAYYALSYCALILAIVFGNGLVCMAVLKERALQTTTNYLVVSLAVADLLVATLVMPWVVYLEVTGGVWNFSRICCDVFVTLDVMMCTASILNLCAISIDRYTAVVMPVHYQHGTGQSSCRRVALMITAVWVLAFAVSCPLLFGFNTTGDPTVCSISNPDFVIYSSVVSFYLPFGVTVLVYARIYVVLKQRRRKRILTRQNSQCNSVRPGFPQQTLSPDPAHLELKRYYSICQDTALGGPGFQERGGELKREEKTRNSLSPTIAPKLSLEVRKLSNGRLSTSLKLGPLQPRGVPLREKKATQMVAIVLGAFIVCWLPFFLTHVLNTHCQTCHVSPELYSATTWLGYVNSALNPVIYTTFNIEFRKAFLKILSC
Chain of Histamine H3 receptor (Q9Y5N1 whole entry): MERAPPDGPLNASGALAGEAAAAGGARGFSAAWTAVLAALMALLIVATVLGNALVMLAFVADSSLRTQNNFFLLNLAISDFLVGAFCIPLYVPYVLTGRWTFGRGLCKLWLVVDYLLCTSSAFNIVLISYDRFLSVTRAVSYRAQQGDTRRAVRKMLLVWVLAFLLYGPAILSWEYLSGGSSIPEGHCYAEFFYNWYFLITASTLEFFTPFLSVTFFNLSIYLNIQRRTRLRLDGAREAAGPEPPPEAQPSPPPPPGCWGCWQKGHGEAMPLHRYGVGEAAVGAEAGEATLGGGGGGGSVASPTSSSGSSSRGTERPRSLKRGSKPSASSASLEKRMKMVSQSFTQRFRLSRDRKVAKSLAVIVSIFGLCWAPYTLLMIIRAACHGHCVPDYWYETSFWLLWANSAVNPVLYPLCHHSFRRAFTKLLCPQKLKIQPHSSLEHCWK
Chain of Mu-type opioid receptor (P35372 whole entry): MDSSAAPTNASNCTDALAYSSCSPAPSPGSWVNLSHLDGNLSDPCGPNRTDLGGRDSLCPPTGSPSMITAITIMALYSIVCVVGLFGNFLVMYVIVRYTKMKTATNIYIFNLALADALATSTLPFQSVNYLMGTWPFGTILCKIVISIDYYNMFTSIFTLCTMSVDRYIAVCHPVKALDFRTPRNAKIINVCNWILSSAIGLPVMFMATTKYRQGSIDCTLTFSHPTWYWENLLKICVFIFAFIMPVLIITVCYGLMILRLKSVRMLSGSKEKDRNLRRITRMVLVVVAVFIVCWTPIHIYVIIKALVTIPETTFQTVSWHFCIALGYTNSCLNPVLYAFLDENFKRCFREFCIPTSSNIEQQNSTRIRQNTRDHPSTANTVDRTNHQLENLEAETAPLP
Chain of Gamma-aminobutyric acid receptor subunit alpha-1 (P62813 whole entry): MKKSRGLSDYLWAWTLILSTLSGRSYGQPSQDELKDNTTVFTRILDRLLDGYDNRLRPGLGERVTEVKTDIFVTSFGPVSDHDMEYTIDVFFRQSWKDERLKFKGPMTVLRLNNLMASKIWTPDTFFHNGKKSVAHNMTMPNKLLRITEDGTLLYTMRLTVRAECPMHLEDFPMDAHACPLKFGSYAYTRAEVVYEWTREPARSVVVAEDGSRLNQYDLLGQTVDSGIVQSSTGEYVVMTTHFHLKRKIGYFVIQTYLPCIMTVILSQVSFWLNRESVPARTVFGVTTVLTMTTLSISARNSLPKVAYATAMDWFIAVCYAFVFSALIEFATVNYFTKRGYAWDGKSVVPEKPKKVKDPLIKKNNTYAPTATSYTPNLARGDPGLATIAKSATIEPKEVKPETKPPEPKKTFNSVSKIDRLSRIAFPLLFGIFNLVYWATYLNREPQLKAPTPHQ
Chain of Vasopressin V1a receptor (P37288 whole entry): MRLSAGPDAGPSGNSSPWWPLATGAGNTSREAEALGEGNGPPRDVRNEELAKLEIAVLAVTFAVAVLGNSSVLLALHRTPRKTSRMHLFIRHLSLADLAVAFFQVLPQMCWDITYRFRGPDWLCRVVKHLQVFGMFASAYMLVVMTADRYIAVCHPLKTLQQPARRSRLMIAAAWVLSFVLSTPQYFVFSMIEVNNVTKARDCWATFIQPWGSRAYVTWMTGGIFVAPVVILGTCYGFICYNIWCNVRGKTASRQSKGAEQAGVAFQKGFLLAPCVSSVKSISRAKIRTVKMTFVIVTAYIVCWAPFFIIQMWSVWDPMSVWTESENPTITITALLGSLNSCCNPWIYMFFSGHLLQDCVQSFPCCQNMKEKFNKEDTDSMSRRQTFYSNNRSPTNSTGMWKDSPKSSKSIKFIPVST
Chain of Voltage-gated inwardly rectifying potassium channel KCNH2 (Q12809 whole entry): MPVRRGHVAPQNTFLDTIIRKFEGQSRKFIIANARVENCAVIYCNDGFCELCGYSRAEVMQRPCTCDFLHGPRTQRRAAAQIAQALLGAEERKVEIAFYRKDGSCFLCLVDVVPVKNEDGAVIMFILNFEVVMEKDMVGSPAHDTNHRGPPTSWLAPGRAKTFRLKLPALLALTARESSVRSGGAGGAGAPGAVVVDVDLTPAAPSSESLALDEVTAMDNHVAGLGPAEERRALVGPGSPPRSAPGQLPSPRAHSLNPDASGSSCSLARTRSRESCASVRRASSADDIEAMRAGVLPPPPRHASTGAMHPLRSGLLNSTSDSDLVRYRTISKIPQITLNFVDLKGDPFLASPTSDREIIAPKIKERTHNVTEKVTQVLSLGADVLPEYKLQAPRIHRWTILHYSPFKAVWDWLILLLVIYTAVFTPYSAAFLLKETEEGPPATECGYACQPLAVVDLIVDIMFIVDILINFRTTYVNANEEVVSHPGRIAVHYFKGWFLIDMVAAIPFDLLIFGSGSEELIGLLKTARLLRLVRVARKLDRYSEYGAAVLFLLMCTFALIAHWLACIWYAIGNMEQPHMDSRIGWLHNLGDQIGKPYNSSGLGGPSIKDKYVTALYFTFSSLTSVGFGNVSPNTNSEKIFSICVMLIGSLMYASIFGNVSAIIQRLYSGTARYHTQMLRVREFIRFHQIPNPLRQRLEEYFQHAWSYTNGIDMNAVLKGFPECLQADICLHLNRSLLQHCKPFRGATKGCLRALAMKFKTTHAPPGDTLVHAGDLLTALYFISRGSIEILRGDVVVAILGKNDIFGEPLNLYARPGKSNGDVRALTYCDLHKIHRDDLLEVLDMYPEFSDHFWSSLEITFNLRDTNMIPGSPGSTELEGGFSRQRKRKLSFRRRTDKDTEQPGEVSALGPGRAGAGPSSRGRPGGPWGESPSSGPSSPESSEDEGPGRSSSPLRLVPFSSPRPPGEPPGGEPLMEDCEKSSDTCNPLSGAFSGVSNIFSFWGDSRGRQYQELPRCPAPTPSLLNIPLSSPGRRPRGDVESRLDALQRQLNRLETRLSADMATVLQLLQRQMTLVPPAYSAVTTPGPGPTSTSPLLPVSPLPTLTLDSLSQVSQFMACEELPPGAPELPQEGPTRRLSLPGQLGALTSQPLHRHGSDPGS
Chain of D(1A) dopamine receptor (P21728 whole entry): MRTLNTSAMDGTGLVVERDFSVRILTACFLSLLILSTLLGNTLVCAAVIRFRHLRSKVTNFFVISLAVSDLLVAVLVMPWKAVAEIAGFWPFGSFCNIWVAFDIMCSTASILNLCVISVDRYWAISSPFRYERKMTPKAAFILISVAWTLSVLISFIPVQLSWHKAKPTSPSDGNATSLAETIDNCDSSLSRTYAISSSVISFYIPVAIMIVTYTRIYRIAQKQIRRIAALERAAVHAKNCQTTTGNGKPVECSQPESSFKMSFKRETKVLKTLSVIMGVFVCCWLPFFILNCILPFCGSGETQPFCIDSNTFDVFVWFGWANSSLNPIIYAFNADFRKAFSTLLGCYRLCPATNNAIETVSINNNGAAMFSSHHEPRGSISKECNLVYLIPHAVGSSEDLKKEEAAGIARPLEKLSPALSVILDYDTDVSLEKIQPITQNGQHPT

AC50 [1] | AC50 (D(1A) dopamine receptor) | AC50 (Endothelin-1 receptor) | AC50 [2] | AC50 [3] | AC50 [4] | AC50 (Mu-type opioid receptor) | AC50 [5] | AC50 (D(3) dopamine receptor) | AC50 (Histamine H3 receptor) | AC50 (Vasopressin V1a receptor) | Molecule | AC50 ([6]; read-out: AC50) | AC50 ([6]; human, cellular components)
> 30 µM | > 30 µM | > 30 µM | > 30 µM | > 30 µM | > 30 µM | > 30 µM | > 30 µM | > 30 µM | > 30 µM |  | COc1ccc(/C=C/C(=O)Nc2ccccc2C(=O)O)cc1OC |  | 
6.1 µM | > 30 µM | > 30 µM | > 30 µM | 29 µM | > 30 µM | > 30 µM | > 30 µM | > 30 µM | 20 µM |  | COc1cc(OC)c(C(=O)CCCN2CCCC2)c(OC)c1 [BUFLOMEDIL] | 2.6 µM | 
> 30 µM | > 30 µM | > 30 µM | > 30 µM | > 30 µM | > 30 µM | > 30 µM | > 30 µM | > 30 µM | > 30 µM |  | CS(=O)(=O)OCCCCOS(C)(=O)=O [BUSULFAN] | > 30 µM | 
> 30 µM | > 30 µM | > 30 µM | > 30 µM | > 30 µM | > 30 µM | > 30 µM | > 30 µM | > 30 µM | > 30 µM |  | CCCCCCNC(=O)n1cc(F)c(=O)[nH]c1=O [CARMOFUR] | > 30 µM | 
> 30 µM | > 30 µM |  | 23.1 µM | > 30 µM | > 30 µM | > 30 µM | 25.9 µM | > 30 µM | > 30 µM | > 30 µM | COC(=O)N[C@@H](C)CNc1nccc(-c2cn(C(C)C)nc2-c2cc(Cl)cc(NS(C)(=O)=O)c2F)n1 [ENCORAFENIB] | > 30 µM | 
> 30 µM | > 30 µM | > 30 µM | > 30 µM |  | > 30 µM | > 30 µM | > 30 µM | > 30 µM | > 30 µM | > 30 µM | CCCN(CC)C(CC)C(=O)Nc1c(C)cccc1C (stereo unspecified) [ETIDOCAINE] | > 30 µM | 
> 30 µM | > 30 µM | > 30 µM | > 30 µM |  | > 30 µM | > 30 µM | > 30 µM | 30 µM | > 30 µM | > 30 µM | Clc1ccc(C(Cn2ccnc2)OCc2ccc(Sc3ccccc3)cc2)c(Cl)c1 (stereo unspecified) [FENTICONAZOLE] | 1.45 µM | 
> 30 µM | > 30 µM |  | > 30 µM | > 30 µM | > 30 µM | > 30 µM | > 30 µM | > 30 µM | > 30 µM | > 30 µM | Nc1nc(F)nc2c1ncn2[C@@H]1O[C@H](COP(=O)(O)O)[C@@H](O)[C@@H]1O [FLUDARABINE PHOSPHATE] | > 30 µM | 
> 30 µM | > 30 µM | > 30 µM | 15 µM |  | > 30 µM | > 30 µM | > 30 µM | > 30 µM | > 30 µM | > 30 µM | CC(C)OC(=O)C(C(=O)OC(C)C)=C1SC=CS1 [MALOTILATE] | > 30 µM | 
23 µM | > 30 µM | > 30 µM | > 30 µM |  | > 30 µM | > 30 µM | > 30 µM | > 30 µM | > 30 µM | > 30 µM | CN(c1nccc(=O)[nH]1)C1CCN(c2nc3ccccc3n2Cc2ccc(F)cc2)CC1 [MIZOLASTINE] | 3.34 µM | 
> 30 µM | > 30 µM | > 30 µM | > 30 µM | > 30 µM | > 30 µM | > 30 µM | > 30 µM | 3.6 µM | > 30 µM |  | CCn1cc(C(=O)O)c(=O)c2cc(F)c(N3CCN(C)CC3)cc21 [PEFLOXACIN] |  | 
> 30 µM | > 30 µM |  | > 30 µM | > 30 µM | > 30 µM | > 30 µM |  | > 30 µM |  |  | C[n+]1ccccc1/C=N/O [PRALIDOXIME] | > 30 µM | 
> 30 µM | > 30 µM | > 30 µM | > 30 µM |  | > 30 µM | > 30 µM | > 30 µM | > 30 µM | > 30 µM | > 30 µM | CCN(CC)CC(=O)Oc1ccc(NC(C)=O)cc1 [PROPACETAMOL] | > 30 µM | 
> 30 µM | > 30 µM | > 30 µM | > 30 µM |  | > 30 µM | 3.6 µM | > 30 µM | 2.5 µM | > 30 µM | > 30 µM | CCCOC(C(=O)OC1CCN(C)CC1)(c1ccccc1)c1ccccc1 [PROPIVERINE] | 3.2 µM | 
> 10 µM | > 30 µM |  | > 10 µM | > 10 µM | > 30 µM | > 30 µM | > 10 µM | > 30 µM |  |  | Cc1cccc(N(C)C(=S)Oc2ccc3ccccc3c2)c1 [TOLNAFTATE] | > 30 µM | 
> 30 µM | > 30 µM |  | > 30 µM | > 30 µM | > 30 µM | > 30 µM |  | > 30 µM |  |  | COLISTIN |  | > 30 µM

Molecule | AC50 [1] | AC50 (D(1A) dopamine receptor) | AC50 (Endothelin-1 receptor) | AC50 [2] | AC50 [3] | AC50 [4] | AC50 (Mu-type opioid receptor) | AC50 [5] | AC50 (D(3) dopamine receptor) | AC50 (Histamine H3 receptor) | AC50 (Vasopressin V1a receptor) | AC50 ([6]; read-out: AC50) | AC50 ([6]; human, cellular components)
CC(=O)O[C@H]1C[C@@H]2CC[C@@H]3[C@H](CC[C@@]4(C)[C@H]3C[C@H]([N+]3(C)CCCCC3)[C@@H]4OC(C)=O)[C@@]2(C)C[C@@H]1[N+]1(C)CCCCC1 [PANCURONIUM] | > 10 µM | > 10 µM |  | > 10 µM | > 10 µM | > 30 µM | > 30 µM | > 10 µM | > 30 µM |  | > 10 µM | 1.26 µM | 
